# Source: the Deep4Chem optical property database
# Assay: solvent given as SMILES
structure (smiles),measurement,setting,value
Cc1ccc(C(=O)NN2C3=C(CC4=C2CCCC4=O)C(=O)CCC3)cc1,emission maximum,in C1CCOC1,435 nm
same,emission maximum,in CC#N,343 nm
same,emission maximum,in CC(C)=O,368 nm
same,emission maximum,in CCCCCO,445 nm
same,emission maximum,in CO,447 nm
same,emission maximum,in ClC(Cl)Cl,438 nm
same,emission maximum,in ClCCl,435 nm
F[B-]1(F)OC(C#Cc2ccccc2)=CC(c2ccccc2)=[O+]1,emission maximum,in ClCCl,420 nm
CCCCCCCCCCCCOc1cc(/C=C/c2ccc3c(c2)C(CC)(CC)c2cc(N4c5ccccc5Sc5ccccc54)ccc2-3)c(OCCCCCCCCCCCC)cc1/C=C/c1ccc2c(c1)C(CC)(CC)c1cc(N3c4ccccc4Sc4ccccc43)ccc1-2,emission maximum,in C1CCOC1,474 nm
same,emission maximum,in CC#N,473 nm
same,emission maximum,in CCCCCC,477 nm
same,emission maximum,in Cc1ccccc1,468 nm
same,emission maximum,in ClCCl,477 nm
N#Cc1c(N2c3ccccc3C(c3ccccc3)(c3ccccc3)c3ccccc32)cccc1N1c2ccccc2C(c2ccccc2)(c2ccccc2)c2ccccc21,emission maximum,in Cc1ccccc1,454 nm
same,emission maximum,in O=P(c1ccccc1)(c1ccccc1)c1ccccc1Oc1ccccc1P(=O)(c1ccccc1)c1ccccc1,466 nm
CC1=C(c2ccccc2)Oc2cc3nc4ccccc4nc3c3cccc1c23,emission maximum,in ClCCl,554 nm
CCCCN(CCCC)c1ccc(/C=C/c2ccc3nc(/C=C/c4ccc(N(C)C)cc4)c(-c4ccccc4)nc3c2)cc1,emission maximum,in C1COCCO1,549 nm
same,emission maximum,in CC#N,661 nm
same,emission maximum,in ClCCl,615 nm
Oc1ccc2ccccc2c1,emission maximum,in C1CCCCC1,350.75 nm
same,emission maximum,in O,351 nm
N#Cc1nn(-c2ccccc2Cl)nc1N1CCCC1,emission maximum,in CC#N,426 nm
CC(C)(C)c1ccc(-c2cc3c4c(c2)CCc2cc(-c5ccc(C(C)(C)C)cc5)cc(c2-4)CC3)cc1,emission maximum,in C1CCCCC1,382.09 nm
same,emission maximum,in C1CCOC1,384.87 nm
same,emission maximum,in CC#N,383.16 nm
same,emission maximum,in CCCCCC,381.02 nm
same,emission maximum,in CCO,382.73 nm
same,emission maximum,in CN(C)C=O,386.79 nm
same,emission maximum,in CO,381.87 nm
same,emission maximum,in ClC(Cl)Cl,387.93 nm
same,emission maximum,in ClCCl,386.36 nm
CC(C)(C)c1ccc(-c2nc3c4ccc(-c5cccc6ccccc56)cc4c4cc(-c5cccc6ccccc56)ccc4c3n2-c2ccc(C(C)(C)C)cc2)cc1,emission maximum,in C1CCOC1,386 nm
same,emission maximum,in C1COCCO1,385 nm
same,emission maximum,in CC#N,391 nm
same,emission maximum,in CCCCCC,381 nm
same,emission maximum,in CCCCOCCCC,383 nm
same,emission maximum,in CCN(CC)CC,382 nm
same,emission maximum,in CCOC(C)=O,385 nm
same,emission maximum,in CCOCC,382 nm
same,emission maximum,in CN(C)C=O,394 nm
same,emission maximum,in Cc1ccccc1,385 nm
same,emission maximum,in ClC=C(Cl)Cl,386 nm
same,emission maximum,in ClCCl,388 nm
CN1c2ccc3c(c2-c2ccccc2S1(=O)=O)-c1ccccc1S(=O)(=O)N3C,emission maximum,in ClCCl,443 nm
CC1(C)CC(/C=C/c2cn(-c3ccccc3)nc2-c2ccccc2)=CC(=C(C#N)C#N)C1,emission maximum,in C1CCOC1,556 nm
same,emission maximum,in C1COCCO1,548 nm
same,emission maximum,in CCO,564 nm
same,emission maximum,in CCOC(C)=O,564 nm
same,emission maximum,in CN(C)C=O,565 nm
same,emission maximum,in CO,561 nm
same,emission maximum,in CS(C)=O,578 nm
same,emission maximum,in Cc1ccccc1,542 nm
same,emission maximum,in ClC(Cl)Cl,550 nm
same,emission maximum,in ClCCl,550 nm
Clc1ccc(-c2nc(-c3ccccc3)c(N(c3ccccc3)c3ccccc3)s2)cc1,emission maximum,in ClC(Cl)Cl,474 nm
Cc1ccc(CN2/C(=C/C=C3\CCCC(/C=C/C4=[N+](Cc5ccc(C)cc5)c5ccccc5C4(C)C)=C3Cl)C(C)(C)c3ccccc32)cc1,emission maximum,in CO,813 nm
N#Cc1c(-n2c3ccccc3c3ccccc32)nc(-n2c3ccccc3c3ccccc32)c(C#N)c1-c1ccccc1,emission maximum,in c1cc(-c2cccc(-n3c4ccccc4c4ccccc43)c2)cc(-n2c3ccccc3c3ccccc32)c1,475 nm
CC(C)(C)Nc1cc2sc3cc(NC(C)(C)C)c(F)cc3c(=O)c2cc1F,emission maximum,in CCO,432 nm
CC(C)(C)c1cc2c3c(c1)-c1cccc4c1N(B3N1c3ccccc3Sc3cccc-2c31)c1ccccc1S4,emission maximum,in C1CCOC1,731 nm
O=C1Nc2ccccc2/C1=C/C(=O)c1ccc(O)cc1,emission maximum,in C1CCCCC1,384 nm
same,emission maximum,in C1COCCO1,399 nm
same,emission maximum,in CC#N,401 nm
same,emission maximum,in CC(C)(C)O,406 nm
same,emission maximum,in CC(C)O,407 nm
same,emission maximum,in CCCCCC,382 nm
same,emission maximum,in CCCCO,407 nm
same,emission maximum,in CCOC(C)=O,398 nm
same,emission maximum,in CN(C)C=O,401 nm
same,emission maximum,in CO,408 nm
same,emission maximum,in ClCCl,400 nm
same,emission maximum,in O,424 nm
Nc1ccc(/C=C/c2ccccc2)cc1,emission maximum,in CC#N,423 nm
same,emission maximum,in CCCCCC,380 nm
Cc1c(COC(=O)c2ccccc2Br)n2c(OCC(=O)c3ccccc3Br)c(C)c(=O)n2c1=O,emission maximum,in CCO,458 nm
Cn1ncc2c3c(C#N)c4c5ccccc5n(C)c4nc3ccc21,emission maximum,in CCOC(C)=O,478 nm
CNC1=C2C=CC=[N+]2[B-](F)(F)n2cccc21,emission maximum,in C1CCCCC1,463 nm
same,emission maximum,in CC(C)=O,441.5 nm
same,emission maximum,in CCO,439 nm
same,emission maximum,in CCOC(C)=O,444.5 nm
same,emission maximum,in CO,440 nm
same,emission maximum,in OCC(F)(F)F,449 nm
CC1(C)c2ccccc2N(c2ccc(-c3cc(-c4ccccc4)nc(-c4ccccc4)n3)cc2)c2ccccc21,emission maximum,in Cc1ccccc1,475.6 nm
CCOc1cccc(-c2nc3c(c4c2-c2ccccc2CC4)-c2ccccc2CC3)c1O,emission maximum,in ClCCl,406 nm
